This is an account of results in patent US10023592B2, “Bromodomain inhibitors” (Celgene Quanticel Research, Inc., priority 2013, dated 2018).

Where only a bound is given, the exact number is not on record here.

Assay [1] concerns Raji, human Burkitts lymphoma cells. Put plainly: Cell-MTS proliferation assay, Raji. It counts as cell-based. As to conditions: Homo sapiens, 168 hr. An outline of the steps: (§1)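 Seven-day colorimetric MTS assay; compound at 11 concentrations from 100 μM down to 2.0 nM final, added a day after plating. IC50 from OD490 normalised to DMSO controls.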
A general note: Tetrazolium dyes change colour on reduction, which living cells bring about.

For another assay, the target named is BRD4(BD1) (Homo sapiens (Human), UniProt O60885). Briefly: In vitro enzyme inhibition assay (BRD4 AlphaScreen). It counts as binding. An outline of the steps: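 AlphaScreen proximity readout, using streptavidin donor and Ni-chelate acceptor beads at 5 μg/mL final, monitors biotin-H4 tetraacetylated peptide interaction with purified His-tagged BRD4.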
In general terms: Alpha assays give light when donor and acceptor beads are brought close together.

Assay [2] relates to HL-60, human proleukemia cells. Briefly: Cell-MTS proliferation assay, HL-60. As to conditions: Homo sapiens, 168 hr. It counts as cell-based. An outline of the steps: as §1
For assay [3], the system named is NCI-H460, human non-small cell lung cancer cells. Put plainly: Cell-MTS proliferation assay, NCI-H460. It counts as cell-based. As to conditions: Homo sapiens, 168 hr. The essentials:
as §1

[4] abbreviates: in vitro enzyme inhibition assay.
Where [5] appears, read: NCI-H460, Cell-MTS proliferation.
Where [6] appears, read: Cell-MTS proliferation, Raji cells.
[7] abbreviates: Cell-MTS proliferation, HL-60 cells.
The mark [8] stands for this setting: Cell-MTS proliferation, NCI-H460 cells.
Setting [9] is: Raji, Cell-MTS, class symbols A/B/C.
Setting [10] is: HL-60, Cell-MTS, class symbols A/B/C.
Where [11] appears, read: NCI-H460, Cell-MTS, class symbols A/B/C.

For orientation: IC50 means the concentration that gives 50% inhibition.

As to `Cc1cc(-c2nc(NS(C)(=O)=O)ncc2OCC2CC2)cn(C)c1=O` [Example 153, N-[5-(cyclopropylmethoxy)-4-(1,5-dimethyl-6-oxopyridin-3-yl)pyrimidin-2-yl]methanesulfonamide], the concentration for half-maximal inhibition (IC50) in assay [1] (Raji, Cell-MTS proliferation) is 0.5 to 5 µM; at BRD4(BD1) (setting [4]), under 0.5 µM; in assay [2] (HL-60, Cell-MTS proliferation), 0.5 to 5 µM; in assay [3] (setting [5]), over 5 µM.

In the case of `Cc1cc(-c2cc(S(C)(=O)=O)ccc2OC2CCC(F)(F)CC2)cn(C)c1=O` [Example 415, 5-[2-(4,4-difluorocyclohexyl)oxy-5-methylsulfonylphenyl]-1,3-dimethylpyridin-2-one], the IC50 in assay [1] (setting [6]) was under 0.5 µM; at BRD4(BD1) (setting [4]), under 0.5 µM; in assay [2] (setting [7]) it was under 0.5 µM; in assay [3] (setting [8]), over 5 µM.

On to `Cn1cc(-c2cc(S(C)(=O)=O)ccc2OCC2CC2)c2ccoc2c1=O` [Example 254, 4-[2-(cyclopropylmethoxy)-5-methylsulfonylphenyl]-6-methylfuro[2,3-c]pyridine-7-one], for which the IC50 in assay [1] (Raji, Cell-MTS proliferation) was under 0.5 µM; at BRD4(BD1) (setting [4]), under 0.5 µM; in assay [2] (HL-60, Cell-MTS proliferation) it was under 0.5 µM; in assay [3] (setting [5]) it was over 5 µM.

With `Cc1cc(-c2cc(NS(C)(=O)=O)ccc2OC2CCC(F)(F)CC2)cn(C)c1=O` [Example 447, N-[4-(4,4-difluorocyclohexyl)oxy-3-(1,5-dimethyl-6-oxopyridin-3-yl)phenyl]methanesulfonamide], the concentration for half-maximal inhibition (IC50) in assay [1] (setting [6]) was under 0.5 µM; against BRD4(BD1) (setting [4]), under 0.5 µM; in assay [2] (setting [7]), under 0.5 µM; in assay [3] (setting [8]) it was over 5 µM.

In the case of `CCS(=O)(=O)Nc1ccc(Oc2ccc(F)cc2F)c(-c2cn(C)c(=O)c3cncn23)c1` [Example 129, N-[4-(2,4-difluorophenoxy)-3-(7-methyl-8-oxoimidazo[1,5-a]pyrazin-5-yl)phenyl]ethanesulfonamide], the IC50 in assay [1] (setting [9]) is under 0.5 µM; against BRD4(BD1) (class symbols A/B/C), under 0.5 µM; in assay [2] (setting [10]) it was under 0.5 µM; in assay [3] (setting [11]), over 5 µM.

As for `Cn1cc(-c2cc(NS(C)(=O)=O)ccc2Oc2ccc(F)cc2F)cc(F)c1=O` [Example 271, N-[4-(2,4-difluorophenoxy)-3-(5-fluoro-1-methyl-6-oxopyridin-3-yl)phenyl]methanesulfonamide], the IC50 in assay [1] (Raji, Cell-MTS proliferation) is under 0.5 µM; at BRD4(BD1) (setting [4]), under 0.5 µM; in assay [2] (HL-60, Cell-MTS proliferation), under 0.5 µM; in assay [3] (setting [5]) it was over 5 µM.

As to `C#Cc1cc(-c2cc(S(=O)(=O)CC)ccc2OCC2CC2)cn(C)c1=O` [Example 284, 5-[2-(cyclopropylmethoxy)-5-ethylsulfonylphenyl]-3-ethynyl-1-methylpyridin-2-one], the half-inhibitory concentration (IC50) in assay [1] (Raji, Cell-MTS proliferation) was 0.5 to 5 µM; at BRD4(BD1) (setting [4]), under 0.5 µM; in assay [2] (HL-60, Cell-MTS proliferation) it was 0.5 to 5 µM; in assay [3] (setting [5]), over 5 µM.

Regarding `Cn1cc(-c2nc(NS(C)(=O)=O)ncc2OCC2CC2)c2ccccc2c1=O` [Example 152, N-[5-(cyclopropylmethoxy)-4-(2-methyl-1-oxoisoquinolin-4-yl)pyrimidin-2-yl]methanesulfonamide], the IC50 is under 0.5 µM in assay [1] (Raji, Cell-MTS proliferation); under 0.5 µM against BRD4(BD1) (setting [4]); under 0.5 µM in assay [2] (HL-60, Cell-MTS proliferation); over 5 µM in assay [3] (setting [5]).

Take `CCS(=O)(=O)Nc1cc(-c2cn(C)c(=O)c3ccc(-c4cnn(C)c4)cc23)c(OCC2CC2)cc1F` [Example 209, N-[4-(cyclopropylmethoxy)-2-fluoro-5-[2-methyl-6-(1-methylpyrazol-4-yl)-1-oxoisoquinolin-4-yl]phenyl]ethanesulfonamide]: the IC50 in assay [1] (Raji, Cell-MTS proliferation) is under 0.5 µM; at BRD4(BD1) (setting [4]) it was under 0.5 µM; in assay [2] (HL-60, Cell-MTS proliferation), under 0.5 µM; in assay [3] (setting [5]), over 5 µM.

As for `CCS(=O)(=O)Cc1ccc(Oc2ccc(F)cc2F)c(-c2cc(OC(F)F)c(=O)n(C)c2)c1` [Example 291, 3-(difluoromethoxy)-5-[2-(2,4-difluorophenoxy)-5-(ethylsulfonylmethyl)phenyl]-1-methylpyridin-2-one], the IC50 in assay [1] (Raji, Cell-MTS proliferation) is under 0.5 µM; on BRD4(BD1) (setting [4]), under 0.5 µM; in assay [2] (HL-60, Cell-MTS proliferation), under 0.5 µM; in assay [3] (setting [5]), over 5 µM.

With `CCS(=O)(=O)c1cccc(-c2cn(C)c(=O)c3cc(F)ccc23)c1` [Example 63, 4-(3-ethylsulfonylphenyl)-7-fluoro-2-methylisoquinolin-1-one], the 50% inhibitory concentration (IC50) is 0.5 to 5 µM in assay [1] (setting [9]), 0.5 to 5 µM against BRD4(BD1) (class symbols A/B/C), 0.5 to 5 µM in assay [2] (setting [10]) and over 5 µM in assay [3] (setting [11]).

As for `Cc1cc(-c2nc(NS(C)(=O)=O)ncc2Oc2ccc(F)cc2F)cn(CC2CC2)c1=O` [Example 248, N-[4-[1-(cyclopropylmethyl)-5-methyl-6-oxopyridin-3-yl]-5-(2,4-difluorophenoxy)pyrimidin-2-yl]methanesulfonamide], the 50% inhibitory concentration (IC50) is under 0.5 µM in assay [1] (Raji, Cell-MTS proliferation); under 0.5 µM against BRD4(BD1) (setting [4]); under 0.5 µM in assay [2] (HL-60, Cell-MTS proliferation); over 5 µM in assay [3] (setting [5]).

In the case of `Cn1cc(-c2cccc(NS(C)(=O)=O)c2)cc(O)c1=O` [Example 467, N-[3-(5-hydroxy-1-methyl-6-oxopyridin-3-yl)phenyl]methanesulfonamide], the 50% inhibitory concentration (IC50) in assay [1] (setting [6]) was over 5 µM; against BRD4(BD1) (setting [4]) it was 0.5 to 5 µM; in assay [2] (setting [7]) it was over 5 µM; in assay [3] (setting [8]) it was over 5 µM.

Take `CCS(=O)(=O)c1ccc(NCC2CC2)c(-c2cc(N(C)C)c(=O)n(C)c2)c1` [Example 440, 5-[2-(cyclopropylmethylamino)-5-ethylsulfonylphenyl]-3-(dimethylamino)-1-methylpyridin-2-one]: the IC50 in assay [1] (setting [6]) was under 0.5 µM; on BRD4(BD1) (setting [4]), under 0.5 µM; in assay [2] (setting [7]), under 0.5 µM; in assay [3] (setting [8]) it was over 5 µM.

Turning to `Cn1cc(-c2nc(NS(C)(=O)=O)ncc2Oc2ccc(F)cc2F)c2ccoc2c1=O` [Example 262, N-[5-(2,4-difluorophenoxy)-4-(6-methyl-7-oxofuro[2,3-c]pyridin-4-yl)pyrimidin-2-yl]methanesulfonamide], the IC50 in assay [1] (Raji, Cell-MTS proliferation) was under 0.5 µM; on BRD4(BD1) (setting [4]), under 0.5 µM; in assay [2] (HL-60, Cell-MTS proliferation), under 0.5 µM; in assay [3] (setting [5]), over 5 µM.

Turning to `CCS(=O)(=O)Nc1ccc(Oc2ccc(F)cc2F)c(-c2cc(OC(F)F)c(=O)n(C)c2)c1` [Example 289, N-[3-[5-(difluoromethoxy)-1-methyl-6-oxopyridin-3-yl]-4-(2,4-difluorophenoxy)phenyl]ethanesulfonamide], the IC50 in assay [1] (Raji, Cell-MTS proliferation) is under 0.5 µM; at BRD4(BD1) (setting [4]) it was under 0.5 µM; in assay [2] (HL-60, Cell-MTS proliferation), under 0.5 µM; in assay [3] (setting [5]) it was over 5 µM.

Take `CCS(=O)(=O)c1ccc(O[C@H]2CC[C@H](O)CC2)c(-c2cn(C)c(=O)c3ccccc23)c1` [Example 181, 4-[5-ethylsulfonyl-2-(trans-4-hydroxycyclohexyl)oxyphenyl]-2-methylisoquinolin-1-one]: the half-inhibitory concentration (IC50) in assay [1] (Raji, Cell-MTS proliferation) was under 0.5 µM; against BRD4(BD1) (setting [4]), under 0.5 µM; in assay [2] (HL-60, Cell-MTS proliferation), under 0.5 µM; in assay [3] (setting [5]), over 5 µM.

With `CCS(=O)(=O)Nc1ccc(OC2CCOCC2)c(-c2cc(C)c(=O)n(C)c2)c1` [Example 441, N-[3-(1,5-dimethyl-6-oxopyridin-3-yl)-4-(oxan-4-yloxy)phenyl]ethanesulfonamide], the IC50 was under 0.5 µM in assay [1] (setting [6]), under 0.5 µM on BRD4(BD1) (setting [4]), under 0.5 µM in assay [2] (setting [7]) and over 5 µM in assay [3] (setting [8]).

Regarding `CCS(=O)(=O)c1ccc(OCC2CC2)c(-c2cc(F)c(=O)n(C)c2)c1` [Example 274, 5-[2-(cyclopropylmethoxy)-5-ethylsulfonylphenyl]-3-fluoro-1-methylpyridin-2-one], the IC50 in assay [1] (Raji, Cell-MTS proliferation) is 0.5 to 5 µM; at BRD4(BD1) (setting [4]), under 0.5 µM; in assay [2] (HL-60, Cell-MTS proliferation), 0.5 to 5 µM; in assay [3] (setting [5]), over 5 µM.

`Cn1cc(-c2cc(S(C)(=O)=O)ccc2OCC2CC2)cc(N)c1=O` [Example 116, 3-amino-5-[2-(cyclopropylmethoxy)-5-methylsulfonylphenyl]-1-methylpyridin-2-one]: the IC50 in assay [1] (setting [9]) is over 5 µM; against BRD4(BD1) (class symbols A/B/C), under 0.5 µM; in assay [2] (setting [10]), 0.5 to 5 µM; in assay [3] (setting [11]) it was over 5 µM.

Consider `Cc1cc(-c2cc(NS(C)(=O)=O)ccc2Oc2ccc(F)cc2F)cn(C)c1=O` [Example 102, N-[4-(2,4-difluorophenoxy)-3-(1,5-dimethyl-6-oxopyridin-3-yl)phenyl]methanesulfonamide], for which the half-inhibitory concentration (IC50) in assay [1] (setting [9]) was under 0.5 µM; against BRD4(BD1) (class symbols A/B/C), under 0.5 µM; in assay [2] (setting [10]), under 0.5 µM; in assay [3] (setting [11]), over 5 µM.

With `CC#CCOc1ccc(S(C)(=O)=O)cc1-c1cn(C)c(=O)c2ccccc12` [Example 184, 4-(2-but-2-ynoxy-5-methylsulfonylphenyl)-2-methylisoquinolin-1-one], the IC50 in assay [1] (Raji, Cell-MTS proliferation) is 0.5 to 5 µM; against BRD4(BD1) (setting [4]), under 0.5 µM; in assay [2] (HL-60, Cell-MTS proliferation), under 0.5 µM; in assay [3] (setting [5]), 0.5 to 5 µM.

For the molecule `CCS(=O)(=O)Nc1cnc(OCC2CC2)c(-c2cn(C)c(=O)c3sc(C(N)=O)cc23)c1` [Example 268, 4-[2-(cyclopropylmethoxy)-5-(ethylsulfonylamino)pyridin-3-yl]-6-methyl-7-oxothieno[2,3-c]pyridine-2-carboxamide], the IC50 in assay [1] (Raji, Cell-MTS proliferation) is 0.5 to 5 µM; against BRD4(BD1) (setting [4]), under 0.5 µM; in assay [2] (HL-60, Cell-MTS proliferation), under 0.5 µM; in assay [3] (setting [5]), over 5 µM.

Turning to `Cc1cc(-c2nc(CS(C)(=O)=O)ncc2OCC2CC2)cn(C)c1=O` [Example 144, 5-[5-(cyclopropylmethoxy)-2-(methylsulfonylmethyl)pyrimidin-4-yl]-1,3-dimethylpyridin-2-one], the IC50 was over 5 µM in assay [1] (Raji, Cell-MTS proliferation); under 0.5 µM at BRD4(BD1) (setting [4]); 0.5 to 5 µM in assay [2] (HL-60, Cell-MTS proliferation); over 5 µM in assay [3] (setting [5]).
